Data as given in patent US9040523B2, “Antifungal 5,6-dihydro-4H-pyrrolo[1,2-α][1,4]-benzodiazepines and 6H-pyrrolo[1,2-α][1,4]benzodiazepines substituted with benzene derivatives” (JANSSEN PHARMACEUTICA NV, priority 2010, dated 2015).
Read-outs that look alike come from different tables or passages of the source.

Columns and labels:
[1] = system: Sporothrix schenkii B62482; experiment: Antifungal activity in vitro (resazurin susceptibility screen), Inf. A; type: cell-based; details: for IC50: Sporothrix
Summary of the method: (§1)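 Each well is seeded with 10^3 colony-forming units against spotted compound dilutions; untreated fungus and plain RPMI-MOPS define the 100% and 0% growth limits.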

[2] = system: Microsporum canis B68128; experiment: Antifungal activity in vitro (resazurin susceptibility screen), Inf. B; type: cell-based; details: for IC50: Microsporum canis
Summary of the method: (§2)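 Each well was inoculated with 10^3 cfu of fungus onto dried, pre-spotted compound serial dilutions in RPMI-MOPS medium, with fungal growth read by resazurin. Growth was referenced to drug-free culture (100%) and medium-only (0%) controls on each plate.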

[3] = system: Trichophyton rubrum B68183; experiment: Antifungal activity in vitro (resazurin susceptibility screen), Inf. C; type: cell-based
Summary of the method: as §1

[4] = system: Candida parapsilosis B66126; experiment: Antifungal activity in vitro (resazurin susceptibility screen), Inf. D; type: cell-based; details: for IC50: Lodderomyces parapsilosis
Summary of the method: as §2

[5] = system: Aspergillus fumigatus B42928; experiment: Antifungal activity in vitro (resazurin susceptibility screen), Inf. E; type: cell-based
Summary of the method: as §1

[6] = system: Cryptococcus neoformans B66663; experiment: Antifungal activity in vitro (resazurin susceptibility screen), Inf. F; type: cell-based; details: for IC50: Cryptococcus neoformans
Summary of the method: as §1

[7] = system: Trichophyton mentagrophytes B70554; experiment: Antifungal activity in vitro (resazurin susceptibility screen), Inf. G; type: cell-based; details: for IC50: Trichophyton mentagrophytes
Summary of the method: as §2

[8] = Liver metabolic stability assay, hLM; type: in vitro ADME, human; details: human liver microsomes, 1 mg protein/ml, 5 μM test compound, 15 min, 37 °C
Description: (§3) Liver preparations (microsomal fractions) were obtained from BD Gentest (San Jose, Calif., US). Metabolic stability was assessed using the following assay conditions. […] The mixture was pre-incubated at 37° C. for 5 min and the enzymatic reaction was started by addition of 5 μM test compound. After 0 (control) and 15 minutes (min), the reactions were terminated by addition of […] (500 μl). The precipitated material was removed by centrifugation at 1200 g for 10 min. The supernatant was analysed by LC-MS/MS on a ThermoFinnigan LCQ Deca XP ion-trap mass spectrometer equipped with an atmospheric pressure chemical ionisation source. Calculation of %-compound remaining was as described by Kantharaj et al. 2003 ((Kantharaj E., Tuytelaars A, Proost P E A, Ongel Z, van […] (2003). Simultaneous measurement of drug metabolic stability and identification of metabolites using ion-trap mass spectrometry.

[9] = Liver metabolic stability assay, mLM; type: in vitro ADME; details: mouse liver microsomes, 1 mg protein/ml, 5 μM test compound, 15 min, 37 °C
Description: as §3

[10] = Liver metabolic stability assay, gpLM; type: in vitro ADME, guinea pig
Description: as §3

[11] = system: Scedosporium apiospermum IHEM3817; experiment: Antifungal activity in vitro (resazurin susceptibility screen), Inf. H; type: cell-based; details: 37 °C, 48 hours, resa time 17 hours, read-out: Inf. H pIC50 (converted)
Description: (§4) The standard susceptibility screen was performed in 96-well plates (U-bottom, Greiner Bio-One). […] These serial dilutions (10 n1) were then spotted onto test-plates that could be stored in the dark at 4° C. for a maximum period of 2 weeks. […] The different fungal species/isolates (Table 3a) were cryopreserved and 1/1000 diluted in medium just prior to use. A standard inoculum of 200 μl containing 10^3 colony-forming unit (cfu) was then added to each well. A positive control (100% growth=fungal culture without antifungal) and a negative control (0% growth ═RPMI-MOPS medium) were included on each plate. […] [table]

[12] = system: Scedosporium prolificans IHEM21157; experiment: Antifungal activity in vitro (resazurin susceptibility screen), Inf. I; type: cell-based; details: Lomentospora prolificans, 37 °C, 48 hours, resa time 17 hours, read-out: Inf. I pIC50 (converted)
Description: as §4

[13] = system: Rhizopus oryzae IHEM5223; experiment: Antifungal activity in vitro (resazurin susceptibility screen), Inf. J; type: cell-based; details: Rhizopus arrhizus, 37 °C, 24 hours, resa time 6 hours, read-out: Inf. J pIC50 (converted)
Description: as §4

[14] = system: Rhizomucor miehei IHEM13391; experiment: Antifungal activity in vitro (resazurin susceptibility screen), Inf. K; type: cell-based; details: 37 °C, 48 hours, resa time 17 hours, read-out: Inf. K pIC50 (converted)
Description: as §4

[15] = target: CYP3A4 (Homo sapiens, UniProt P08684); experiment: Cytochrome P450 inhibition, Protocol A, cDNA expressed proteins, fluorogenic substrates; type: in vitro ADME; details: % inhibition at 10 μM, cDNA expressed protein; for hCYP3A4_BFC_Pct_Inh: substrate BFC; for hCYP3A4_BQ_Pct_Inh: substrate BQ; for hCYP3A4_DBF_Pct_Inh: substrate DBF
Description: (§5) All fluorogenic based assays were performed in Black Costar 96-well plates according to Crespi et al 1997 with minor modifications (Crespi C L, Miller V P & Penman B W (1997). Microtiter plate assays for inhibition of human, drug-metabolizing cytochromes P450. Anal. Biochem. Vol 248, 1898-1900). Assay conditions are outlined in Table 5a. For cytochrome P450 3A4, three different fluorogenic substrates were used. Each reaction mixture consisted of the appropriate concentration of enzyme, NADPH-generating system (“NADPH” means β-nicotinamide adenine dinucleotide phosphate, reduced), substrate in sodium/potassium buffer (pH 7.4). For each cytochrome P450 batch Michealis-Menten kinetics were determined using 11 concentrations.
(§6) Thereafter, further dilutions were made in acetonitrile. […] The compounds were serially diluted to give final concentrations ranging from 1 nM to 10 μM. The reaction mixtures, whereby 1 μL of buffer was replaced by compound solution, were pre-warmed for 5 min at 37° C. and the reaction was initiated by the addition of β-nicotinamide adenine dinucleotide phosphate (NADP+). Reactions were terminated by addition of stopping reagent and the fluorescence was measured using a Fluoroscan (Labsystems, Brussel, Belgium).
(§7) In Table 5a, the following abbreviations were used: 3-cyano-7-ethocycoumarin (CEC), 7-methoxy-4-trifluoromethylcoumarin (MFC), 3-[2-(N,N-diethyl-N-methylamino)ethyl]-7-methoxy-4-methylcoumarin (AMMC), 7-benzyloxy-trifluoromethyl coumarin (BFC), 7-benzyloxyquinoline (BQ) and dibenzyl fluorescein (DBF).

[16] = target: T1, CYP1A2 (Homo sapiens, UniProt P05177); experiment: Cytochrome P450 inhibition, Protocol A, cDNA expressed proteins, fluorogenic substrate; type: in vitro ADME; details: % inhibition at 10 μM; substrate CEC; cDNA expressed protein
T1 sequence (P05177 1-516): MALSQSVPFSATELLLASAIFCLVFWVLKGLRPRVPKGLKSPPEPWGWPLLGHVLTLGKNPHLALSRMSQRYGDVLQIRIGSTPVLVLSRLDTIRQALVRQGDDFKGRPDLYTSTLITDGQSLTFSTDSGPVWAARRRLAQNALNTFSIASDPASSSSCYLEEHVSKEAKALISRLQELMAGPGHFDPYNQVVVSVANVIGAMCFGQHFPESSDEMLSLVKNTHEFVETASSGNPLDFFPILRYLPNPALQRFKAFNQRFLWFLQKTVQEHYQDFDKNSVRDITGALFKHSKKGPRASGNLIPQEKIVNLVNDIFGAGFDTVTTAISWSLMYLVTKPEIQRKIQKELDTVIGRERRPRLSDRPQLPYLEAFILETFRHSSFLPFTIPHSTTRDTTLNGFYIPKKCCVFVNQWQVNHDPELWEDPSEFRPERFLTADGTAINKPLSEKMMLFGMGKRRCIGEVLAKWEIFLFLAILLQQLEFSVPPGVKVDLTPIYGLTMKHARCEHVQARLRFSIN
Description: as §5, §6, §7

[17] = target: CYP2C9 (Homo sapiens, UniProt P11712); experiment: as above; type: in vitro ADME; details: % inhibition at 10 μM; substrate MFC; cDNA expressed protein
Description: as §5, §6, §7

[18] = target: CYP2D6 (Homo sapiens, UniProt P10635); experiment: as above; type: in vitro ADME; details: % inhibition at 10 μM; substrate AMMC; cDNA expressed protein
Description: as §5, §6, §7

[19] = B62482, Sporothrix schenkii B62482, 27 °C, 4 days, resa time 24 hours, highest in-test concentration 64 μM, read-out: Inf. A pIC50 (converted)
[20] = B68128, Microsporum canis B68128, 27 °C, 9 days, resa time 24 hours, read-out: Inf. B pIC50 (converted)
[21] = Trichophyton rubrum B68183, 27 °C, 7 days, resa time 24 hours, read-out: Inf. C pIC50 (converted)
[22] = Candida parapsilosis B66126, 37 °C, 24 hours, resa time 4 hours, read-out: Inf. D pIC50 (converted)
[23] = Aspergillus fumigatus B42928, 27 °C, 48 hours, resa time 17 hours, read-out: Inf. E pIC50 (converted)
[24] = B66663, Cryptococcus neoformans B66663, 37 °C, 24 hours, resa time 4 hours, read-out: Inf. F pIC50 (converted)
[25] = B70554, Trichophyton mentagrophytes B70554, 27 °C, 7 days, resa time 24 hours, read-out: Inf. G pIC50 (converted)
[26] = guinea pig microsomes, 1 mg protein/ml, 5 μM test compound, 15 min, 37 °C

Chain of CYP3A4 (P08684 whole entry): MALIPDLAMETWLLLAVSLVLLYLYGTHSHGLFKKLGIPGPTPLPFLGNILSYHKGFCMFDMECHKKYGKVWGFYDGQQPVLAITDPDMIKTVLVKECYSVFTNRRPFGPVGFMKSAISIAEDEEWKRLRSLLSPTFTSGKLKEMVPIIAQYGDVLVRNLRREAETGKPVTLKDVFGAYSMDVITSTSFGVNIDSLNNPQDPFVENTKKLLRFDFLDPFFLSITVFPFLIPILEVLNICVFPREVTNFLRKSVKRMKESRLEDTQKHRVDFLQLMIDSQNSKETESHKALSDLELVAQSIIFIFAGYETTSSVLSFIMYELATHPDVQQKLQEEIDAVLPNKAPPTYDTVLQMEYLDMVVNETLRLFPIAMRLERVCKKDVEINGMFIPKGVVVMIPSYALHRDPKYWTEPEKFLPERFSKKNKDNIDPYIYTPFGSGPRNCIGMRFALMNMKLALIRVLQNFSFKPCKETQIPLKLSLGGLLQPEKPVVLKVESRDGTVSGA
Chain of CYP2D6 (P10635 whole entry): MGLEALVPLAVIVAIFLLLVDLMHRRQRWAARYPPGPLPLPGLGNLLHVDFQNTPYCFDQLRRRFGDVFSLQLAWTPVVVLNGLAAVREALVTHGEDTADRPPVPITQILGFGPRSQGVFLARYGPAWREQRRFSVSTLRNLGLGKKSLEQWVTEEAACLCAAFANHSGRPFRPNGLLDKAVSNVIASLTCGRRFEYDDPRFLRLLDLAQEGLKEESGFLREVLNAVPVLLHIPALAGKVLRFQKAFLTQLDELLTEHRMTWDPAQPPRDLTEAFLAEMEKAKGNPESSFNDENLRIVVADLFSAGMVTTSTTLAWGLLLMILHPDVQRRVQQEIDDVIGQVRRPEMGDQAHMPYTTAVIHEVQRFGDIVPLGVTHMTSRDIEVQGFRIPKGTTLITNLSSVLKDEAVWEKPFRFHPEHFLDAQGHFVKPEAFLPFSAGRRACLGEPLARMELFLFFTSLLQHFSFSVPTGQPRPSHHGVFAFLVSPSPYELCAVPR
Chain of CYP2C9 (P11712 whole entry): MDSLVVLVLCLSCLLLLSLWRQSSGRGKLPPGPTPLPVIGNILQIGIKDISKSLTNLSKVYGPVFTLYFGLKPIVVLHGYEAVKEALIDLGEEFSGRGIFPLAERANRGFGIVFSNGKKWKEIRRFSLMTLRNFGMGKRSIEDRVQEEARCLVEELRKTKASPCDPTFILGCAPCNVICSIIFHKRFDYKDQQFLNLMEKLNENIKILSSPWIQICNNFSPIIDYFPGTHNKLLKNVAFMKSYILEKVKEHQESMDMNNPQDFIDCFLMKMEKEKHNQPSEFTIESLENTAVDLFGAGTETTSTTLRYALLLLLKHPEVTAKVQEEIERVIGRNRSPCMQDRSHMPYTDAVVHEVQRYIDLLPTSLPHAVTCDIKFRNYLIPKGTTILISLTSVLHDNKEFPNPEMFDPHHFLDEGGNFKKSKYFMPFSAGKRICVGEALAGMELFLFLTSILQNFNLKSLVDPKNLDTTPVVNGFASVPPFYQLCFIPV

Row | SMILES | %-compound metabolised_Met_hLM [8] | %-compound metabolised Met_mLM [9] | melting point | IC50 [1, 19] | IC50 [2, 20] | IC50 [3, 21] | IC50 [4, 22] | IC50 [5, 23] | IC50 [6, 24] | IC50 [7, 25] | %-compound metabolised Met_gpLM [10, 26] | hCYP3A4_BFC_Pct_Inh [15] | hCYP3A4_BQ_Pct_Inh [15] | hCYP3A4_DBF_Pct_Inh [15] | hCYP1A2_CEC_Pct_Inh [16] | hCYP2C9_MFC_Pct_Inh [17] | hCYP2D6_AMMC_Pct_Inh [18] | further results
1 | CC(O)c1ccc(C2NCc3c(Cl)cccc3-n3cccc32)cc1 (stereo not drawn) [Compound 1, 4-(7-chloro-5,6-dihydro-4H-pyrrolo[1,2-a][1,4]benzodiazepin-4-yl)-alpha-methyl-benzenemethanol] | 43% | 51% | 118.5 to 121.2 °C |  |  |  |  |  |  |  |  |  |  |  |  |  |  | IC50 ([1]; B62482, read-out: Inf. A pIC50 (converted)): > 63.1 µM; IC50 ([2]; B68128, read-out: Inf. B pIC50 (converted)): 3.16 µM; IC50 ([3]; Trichophyton rubrum, B68183, read-out: Inf. C pIC50 (converted)): 3.16 µM; IC50 ([4]; B66126, read-out: Inf. D pIC50 (converted)): > 63.1 µM; IC50 ([5]; Aspergillus fumigatus, B42928, read-out: Inf. E pIC50 (converted)): > 63.1 µM; IC50 ([6]; B66663, read-out: Inf. F pIC50 (converted)): 63.1 µM; IC50 ([7]; B70554, read-out: Inf. G pIC50 (converted)): 12.6 µM; %-compound metabolised Met_gpLM ([10]; guinea pig, microsomes, 0.25 h, 5 μM, pH 7.4): 86%
2 | CC(=O)c1ccc(C2=NCc3c(Cl)cccc3-n3cccc32)cc1 [Compound 17, 1-[4-(7-chloro-6H-pyrrolo[1,2-a][1,4]benzodiazepin-4-yl)phenyl]-ethanone] | 50% | 70% | 252.3 to 252.6 °C | > 31.6 µM | 0.2 µM | 0.0398 µM | > 31.6 µM | > 31.6 µM | > 31.6 µM | 0.251 µM | 84% |  |  |  |  |  |  | IC50 [11]: > 63.1 µM; IC50 [12]: > 63.1 µM; IC50 [13]: > 63.1 µM; IC50 [14]: > 63.1 µM
3 | CC(=O)c1ccc(C2=NCc3c(ccc(Cl)c3Cl)-n3cccc32)cc1.Cl [Compound 21, 1-[4-(7,8-dichloro-6H-pyrrolo[1,2-a][1,4]benzodiazepin-4-yl)phenyl]-ethanone .HCl] | 17% | 24% |  |  |  |  |  |  |  |  | 64% | 0% | 26% | 26% | 27% | 54% | 39% | Inf. A pIC50 ([1]; Sporothrix schenkii B62482, 27 °C, 4 days, resa time 24 hours, highest in-test concentration 64 μM): <4.2; Inf. B pIC50 ([2]; Microsporum canis B68128, 27 °C, 9 days, resa time 24 hours): <4.2; Inf. C pIC50 ([3]; Trichophyton rubrum B68183, 27 °C, 7 days, resa time 24 hours): <4.2; Inf. D pIC50 ([4]; Candida parapsilosis B66126, 37 °C, 24 hours, resa time 4 hours): <4.2; Inf. E pIC50 ([5]; Aspergillus fumigatus B42928, 27 °C, 48 hours, resa time 17 hours): <4.2; Inf. F pIC50 ([6]; Cryptococcus neoformans B66663, 37 °C, 24 hours, resa time 4 hours): <4.2; Inf. G pIC50 ([7]; Trichophyton mentagrophytes B70554, 27 °C, 7 days, resa time 24 hours): <4.2
4 | CC(=O)c1ccc(C2=NCc3cc(Cl)cc(Cl)c3-n3cccc32)cc1 [Compound 26, 1-[4-(8,10-dichloro-6H-pyrrolo[1,2-a][1,4]benzodiazepin-4-yl)phenyl]-ethanone] | 19% | 45% | 183.6 to 186.7 °C | 1.26 µM | 0.631 µM | 0.0794 µM | > 63.1 µM | 1.58 µM | 10 µM | 3.98 µM | 44% | 33% | 32% | 55% | 34% | 69% | 74% | 
